Experimental data reported in patent publication US12083082B2, “Methods for treating neurodegenerative disorders” (Alzheon, Inc., priority 2018, dated 2024).
Where “and” joins values, the source holds several entries; their conditions need not be identical. Equal values may be shown once. Entries after “also recorded” stand apart in the source; their conditions may differ.

What was measured:
[1] = Brain penetration of oral 3-SPA in male SD rats (brain, CSF, plasma); assay type: in vivo, Sprague-Dawley rats; details: oral 30 mg/kg
Protocol: A separate group of animals was dosed orally at 30 mg/kg and terminal brain, CSF and plasma samples were collected at 1, 2, 6, and 24 hr (3 animals for each time point) for bioanalyses of 3-SPA in brain and CSF, and to estimate brain penetration relative to plasma concentrations. The in-life study was performed at Agilux Laboratories (Worcester, MA) following quality standards in line with Good Laboratory Practice. Bioanalyses of rat plasma, CSF and brain was preformed using LC-MS/MS at Nextcea. Prior to processing rat brains for bioanalysis, the brains were perfused to remove pooled blood. Pharmacokinetic data analyses were conducted using Winnonlin Professional v5.0.1 (Pharsight, Mountain View, CA).
The plasma concentration of a single dose of 3-SPA, dissolved in saline as a clear solution, administered orally and intravenously to rats at a dose level of 30 mg/kg and 10 mg/kg, respectively, are shown in FIG. 9. Brain, CSF and corresponding plasma levels after a single oral dose of dose of 30 mg/kg of 3-SPA at 1, 2, 6, and 24 hr are shown in FIG. 10. Mean PK curves were used for calculation of pharmacokinetic parameters.

[2] = target: T1, recombinant human Aβ42 peptide (Homo sapiens, UniProt P05067); assay: Ion mobility mass spectrometry (IMS MS) anti-Aβ42 oligomer activity / binding study; assay type: biochemical; parameters: key to Presence of Aβ42 Pentamer / Presence of Aβ42 Hexamer / Presence of Aβ42 Decamer / Presence of Aβ42 Dimer / Presence of Aβ42 Trimer / Presence of Aβ42 Tetramer: Y = yes, presence of oligomer species; N = no presence of oligomer species
T1 construct: recombinant human Aβ42 peptide; purchased BioLegend 843801
T1 sequence (P05067 672-713 limits assumed): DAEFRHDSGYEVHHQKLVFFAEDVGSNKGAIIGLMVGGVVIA
Protocol: The conditions used for mass spectrometry, using a Waters Synapt G2-S, were as follows: positive polarity in sensitivity mode, capillary=2.5 kV, nebulizer=2 mbar, source temperature=80° C., desolvation temperature=60° C., sample cone setting=35 V, source offset setting=60 V, and mass range=500 to 4000 m/z. These conditions were maintained throughout the study to ensure consistency of the data and to avoid influencing the detection of oligomers due to preferential ionization conditions.
Samples were directly infused into the mass spectrometer at a flow rate of 10 μL/min using a Protea PM-1000 Syringe Pump and Hamilton 1 mL Syringe. The data acquisition of the amyloid peptide was performed using a Waters Synapt G2-S quadrupole time of flight mass spectrometer (Q-TOF MS) with traveling wave ion mobility (Waters Corp., Milford, MA). The data were acquired using the systems sensitivity mode to allow for the detection of the less abundant oligomers. Samples were infused at room temperature. The IMS MS studies were conducted at Protea, Inc. (Morgantown, WV).
1 mg of recombinant human Aβ42 peptide from BioLegend (99% purity, cat #843801) was reconstituted in 200 μL of Fisher Optima LC/MS grade water (cat #W6-1) and vortexed vigorously for 2 minutes to solubilize the peptide creating a 5 mg/mL solution. Samples were then diluted to a final concentration of 22 pmol/μL prior to incubation. The sample mixtures were then incubated at room temperature for 0, 4 and 24 hours. After the acquisition of incubated samples was completed, the raw data were analyzed using the Waters MassLynx v2.4 suite with DriftScover v2.7 to visualize drift times for the peptide.
Aβ42 species characterization using IMS MS was performed by direct infusion at 22 pmol/μL in water. The peptide was prepared in water to maintain the native state conformation of the peptide and ion mobility data acquisition was performed to detect and characterize the conformational changes of the native state monomer and any oligomers that may have formed during the incubation.
The data acquisition for Aβ42 peptide was performed using a Waters Synapt G2-S quadrupole time of flight mass spectrometer (Q-TOF MS) with traveling wave ion mobility (Waters Corp., Milford, MA). The data were acquired using the systems sensitivity mode to allow for the detection of the less abundant oligomers. Samples were infused at room temperature as above.
1 mg of 3-SPA was reconstituted in 1 mL of Fisher Optima LC/MS grade water (cat #W6-1) and vortexed vigorously for 2 minutes until completely dissolved. The sample was then diluted to create […], and 22,000 pmol/μL solutions to perform a 100-fold, and 1,000-fold molar excess for the binding experiments with Aβ42 peptide.
1 mg of recombinant human Aβ42 peptide was reconstituted in 200 μL of Fisher Optima LC/MS grade water and vortexed vigorously to solubilize to a 5 mg/mL solution. Samples were then diluted to their final concentrations prior to incubation. The sample mixtures were incubated at room temperature for 0, 4 and 24 hours, followed by analysis as described above.
To address the high conformational flexibility of Aβ42 and to characterize its interaction with 3-SPA, we used ion mobility mass spectrometry (IMS), with a quadrupole time of flight mass spectrometer (Q-TOF MS) with traveling wave ion mobility. Resulting effect of modulation of Aβ conformational space is the prevention of oligomer formation. We have found not only concentration dependency but also time-dependency of this anti-Aβ42 oligomeric effect of 3-SPA as indicated in FIG. 3 and FIG. 4. 100- vs 1,000-fold molar excess of 3-SPA over Aβ42 results in a different sub-species profile of inhibition of Aβ42 oligomer formation. The activity is also compared with the same excess dependency of tramiprosate.

[3] = 100:1 excess ratio compound:protein
[4] = 1000:1 excess ratio compound:protein

AUC 0-inf_obs ([1]; Brain): 33224.4 ng·h/mL | AUC 0-t ([1]; Brain): 7586.5 ng·h/mL | Cmax ([1]; Brain): 649.8 ng/mL | t½ ([1]; Brain): 64.07 h | AUC 0-inf_obs ([1]; CSF): 726.2 ng·h/mL | AUC 0-t ([1]; CSF): 463.6 ng·h/mL | Cmax ([1]; CSF): 159.2 ng/mL | t½ ([1]; CSF): 3.56 h | AUC 0-inf_obs ([1]; Plasma): 30099.2 ng·h/mL | AUC 0-t ([1]; Plasma): 30001.7 ng·h/mL | Cmax ([1]; Plasma): 5714.6 ng/mL | t½ ([1]; Plasma): 3.03 h | CSF/brain AUC % [1]: 6.1% | Brain/Plasma (AUC %), brain penetration ([1]; 30 mg/kg): 25% and 25.3% | Presence of Aβ42 Decamer [2, 3]: N | Presence of Aβ42 Dimer [2, 3]: Y | Presence of Aβ42 Hexamer [2, 3]: Y | Presence of Aβ42 Pentamer [2, 3]: Y | Presence of Aβ42 Tetramer [2, 3]: Y | Presence of Aβ42 Trimer [2, 3]: Y | Presence of Aβ42 Decamer [2, 4]: N | Presence of Aβ42 Dimer [2, 4]: N | Presence of Aβ42 Hexamer [2, 4]: N | Presence of Aβ42 Pentamer [2, 4]: Y | Presence of Aβ42 Tetramer [2, 4]: N | Presence of Aβ42 Trimer [2, 4]: N
Compound: O=C(O)CCS(=O)(=O)O [3-SPA, 3-sulfopropanoic acid]
Inhibition of formation of Aβ42 oligomers (in words) ([2]; 4 hr incubation, ratio 1:1000): inhibits the formation of oligomers with the exception of dimers, trimers and pentamers; also recorded: Detection of Aβ42 dimers, trimers and pentamers | Inhibition of formation of Aβ42 oligomers (in words) ([2]; 24 hours incubation, 1,000-fold excess): Near complete prevention of formation of Aβ42 oligomers except for pentamers; also recorded: the only oligomeric species not inhibited were pentamers of Aβ42; also recorded: Only pentamers were detected
